Test [1] has as its system L1210 leukemia cells. The test can be described thus: Measurement of the action of inhibiting proliferation of L1210 leukemia cell. Format: cell-based. The following applies: Mus musculus, L1210, 96 h; RPMI medium with 10% FCS, 37° C., 4 days, trypan blue count of surviving cells. The protocol:
(1) Measurement of the action of inhibiting Proliferation of L1210 leukemia cell
L1210 leukemia cells were added to an RPMI medium containing 10% FCS (fetal calf serum), and the concentration of the cells was adjusted to […]. Each of the test compounds shown in Table I was dissolved in 99.5% ethanol. Prior to use, the final concentration of the ethanol solution was adjusted to less than 0.1%, and it was added to the culture medium. The culture medium was then maintained at 37° C. in a stationary condition for 4 days. After the cultivation, the number of surviving cells was measured by dyeing with trypan blue. As a control, 0.1% ethanol was used. A dose-reaction curve plotted from the ratios of proliferation against the control, and IC50 was determined.

Test [2] deals with P388 mouse leukemia cells. The test can be described thus: Measurement of the antitumor effect on P388 mouse leukemia tumor (increase of life span). Format: in vivo. The following applies: intraperitoneal, 9 days, BDF1 mice. The protocol: (2) Measurement of the antitumor effect on P338 mouse leukemia tumor
1×10^6 P388 mouse leukemia cells were intraperitoneally administered to BDF1 mice. After the lapse of 24 hours, each of the test compounds shown in Table II was intraperitoneally administered to the mice for 9 days. The periods of survival of these animals were examined and the increase of their life span (ILS %) was determined.

The test system of test [3] is B16 melanoma. The test is described as follows: Measurement of the antitumor effect on B16 melanoma mouse tumor (tumor weight). Format: in vivo. Conditions: intraperitoneal, day 1-9, tumor weight on day 18, BDF1 mice. As for the experimental part:
(3) Measurement of the antitumor effect on B16 melanoma mouise tumor
For B16 melanoma, BDF1 mice were implanted subcutaneously with 0.2 ml of a 10% tumor homogenate in saline in the left flank. The test compounds were each given intraperitoneally on day 1-9. The activity was assessed by measuring the tumor weight on day 18.

SMILES strings stand for the structures. ≈ marks a conversion by molar mass, not a printed value.

The IC50 is the midpoint of a concentration-inhibition curve. Read a high IC50 as a need for much substance. In test [1], `CC(=O)OC[C@@H](OC(C)=O)[C@H](/C=C/C=C1C(=O)C=CC1(O)CCCCOc1ccccc1)OC(C)=O` (stereo partly drawn) [5-[(4S,5R)-4,5,6-triacetoxy-2-hexenylidene]-4-(4-phenoxybutyl)-4-hydroxy-2-cyclopentenone] had an IC50 of 0.1 µg/mL (≈ 0.2 µM).

As to `O=C1C=CC(O)(CCCCOc2ccccc2)C1=C/C=C/[C@H](O)[C@H](O)CO` (stereo partly drawn) [5-[(4S,5R)-4,5,6-trihydroxy-2-hexenylidene]-4-(4-phenoxybutyl)-4-hydroxy-2-cyclopentenone], in test [1], the IC50 was found to be 0.8 µg/mL (≈ 2.14 µM). Besides, the figures for the “increase of life span (ILS)” value in test [2] (5 mg/kg/day), in test [2] (10 mg/kg/day) and in test [2] (20 mg/kg/day) were 24.5%, 32.7% and 44.9%, respectively.

`CC(=O)OC[C@@H](O)[C@H](/C=C/C=C1C(=O)C=CC1(O)CCCCOc1ccccc1)OC(C)=O` (stereo partly drawn) [5-[(4S,5R)-4,6-diacetoxy-5-hydroxy-2-hexenylidene]-4-(4-phenoxybutyl)-4-hydroxy-2-cyclopentenone]: 0.2 µg/mL (≈ 0.436 µM) corresponded to half-maximal inhibition in test [1] (IC50). The Proliferation inhibitory rate worked out at 9.6% in test [3] (5 mg/kg/day) and 45.5% in test [3] (10 mg/kg/day).

`O=C1C=CC(O)(CCCCOc2ccccc2)/C1=C\C=C\C(O)CCCO` (stereo not shown) [5-[(E)-4,7-dihydroxy-(2E)-heptenylidene]-4-(4-phenoxybutyl)-4-hydroxy-2-cyclopentenone, reference compound]: the entries for the “increase of life span (ILS)” value in test [2] (5 mg/kg/day), in test [2] (10 mg/kg/day) and in test [2] (20 mg/kg/day) were 21.4%, 31.2% and -69.2%, respectively. In addition, the Proliferation inhibitory rate in test [3] (5 mg/kg/day) is -13.5%; in test [3] (10 mg/kg/day), 32.7%.

For the origin of these results see patent publication US5149711A, “2-cyclopentenone derivatives” (Teijin Limited, priority 1988, dated 1992).
